Reference: US11753489B2, “Nanoparticles using anionic polymer, preparation method and composition thereof” (IMGT CO, LTD., priority 2020, dated 2023)
Counter-ions that a name gives are not always drawn.

System: Huh7 liver cancer cells
Assay: in vitro cytotoxicity evaluation (viability analysis)
Format: cell-based
Conditions: FIG. 7
Protocol: Viability analysis was performed on Huh7 liver cancer cells to evaluate the toxicity of the prepared nanoparticles. Three groups were evaluated: doxorubicin hydrochloride (dox), particles loaded with doxorubicin (032d), and particles not loaded with doxorubicin (032).

For COc1cccc2c1C(=O)c1c(O)c3c(c(O)c1C2=O)C[C@@](O)(C(=O)CO)C[C@@H]3O[C@H]1C[C@H](N)[C@H](O)[C@H](C)O1 [doxorubicin hydrochloride], the “cell viability / cancer cell killing effect” value was “cancer cell killing effect in a concentration-dependent manner”.
